# Assays:
# [1] = Antioxidant activity assessed as DPPH free radical scavenging activity; type: functional
# [2] = tested on: RAW264.7; assay: Anti-inflammatory activity in mouse RAW264.7 cells assessed as inhibition of LPS/IFN-gamma-induced nitric oxide production preincubated for 24 hrs followed by LPS/IFN-gamma-stimulation and measured after 17 hrs by Griess assay; type: functional, cell-based
# [3] = tested on: MM1.S; assay: Cytotoxicity against human MM1S cells assessed as reduction in cell viability; type: functional, cell-based
# [4] = tested on: U-266; assay: Cytotoxicity against human U266 cells assessed as reduction in cell viability; type: functional, cell-based
# [5] = Cytotoxicity against human […] cells assessed as reduction in cell viability; type: functional, cell-based
# [6] = tested on: HepG2; assay: Cytotoxicity against human HepG2 cells assessed as reduction in cell viability after 24 hrs by MTT assay; type: functional, cell-based; conditions: HepG2, 24 h
# [7] = tested on: A549; assay: Cytotoxicity against human A549 cells assessed as reduction in cell viability after 24 hrs by MTT assay; type: functional, cell-based; conditions: A549, 24 h
# [8] = tested on: SGC-7901; assay: Cytotoxicity against human SGC7901 cells assessed as reduction in cell viability after 24 hrs by MTT assay; type: functional, cell-based; conditions: SGC-7901, 24 h
# [9] = tested on: THP-1; assay: Cytotoxicity against human THP1 cells assessed as reduction in cell viability after 24 hrs by MTT assay; type: functional, cell-based; conditions: THP-1, 24 h
# [10] = tested on: K562; assay: Cytotoxicity against human K562 cells assessed as reduction in cell viability after 24 hrs by MTT assay; type: functional, cell-based; conditions: K562, 24 h
# [11] = tested on: HeLa; assay: Cytotoxicity against human HeLa cells assessed as reduction in cell viability after 24 hrs by MTT assay; type: functional, cell-based
# [12] = tested on: L02; assay: Cytotoxicity against human LO2 cells assessed as reduction in cell viability after 24 hrs by MTT assay; type: cell-based; conditions: L02, 24 h
# [13] = tested on: MCF7; assay: Cytotoxicity against human MCF7 cells assessed as reduction in cell viability by MTT assay; type: functional, cell-based
# [14] = tested on: MDA-MB-231; assay: Antiproliferative activity against human MDA-MB-231 cells 24 to 48 hrs by MTT assay; type: functional, cell-based
# [15] = tested on: SW480; assay: Cytotoxicity against human SW480 cells assessed as reduction in cell viability after 24 to 48 hrs by MTT assay; type: functional, cell-based
# [16] = Inhibition of NFkappaB (unknown origin); set-up: species or system Homo sapiens
# [17] = Antioxidant activity assessed as DPPH free radical scavenging activity after 30 mins; type: functional
# [18] = tested on: LS174T; assay: Cytotoxicity against human LS174T cells assessed as reduction in cell viability by SRB assay; type: functional, cell-based
# [19] = tested on: K562; assay: Cytotoxicity against human K562 cells assessed as reduction in cell viability after 48 hrs by SRB assay; type: functional, cell-based; conditions: K562, 48 h
# [20] = tested on: HCT-15; assay: Cytotoxicity against human HCT15 cells assessed as reduction in cell viability after 48 hrs by SRB assay; type: functional, cell-based; conditions: HCT-15, 48 h
# [21] = tested on: PANC-1; assay: Cytotoxicity against human PANC1 cells assessed as reduction in cell viability by MTT assay; type: functional, cell-based
# [22] = tested on: MIA PaCa-2; assay: Cytotoxicity against human MIAPaCa2 cells assessed as reduction in cell viability by MTT assay; type: functional, cell-based
# [23] = tested on: PC-3; assay: Cytotoxicity against human PC3 cells assessed as reduction in cell viability by MTT assay; type: functional, cell-based
# [24] = tested on: Bacillus subtilis; assay: Antibacterial activity against Bacillus subtilis after 24 hrs by twofold serial dilution technique; type: functional
# [25] = tested on: LS174T; assay: Cytotoxicity against human LS174T cells assessed as reduction in cell viability in presence of PTX by SRB assay relative to control; type: functional
# [26] = tested on: LS174T; assay: Cytotoxicity against human LS174T cells assessed as reduction in cell viability in presence of PTX by SRB assay; type: functional, cell-based
compound,measurement,setting,value
COc1cc(/C=C/C(=O)C(=NNc2ccc(C)cc2)C(=O)/C=C/c2ccc(O)c(OC)c2)ccc1O,IC50,[1],0.253 µg/mL
O=C(/C=C(O)/C=C/c1ccc(O)c(O)c1)c1ccccc1O,IC50,[2],9.6 µM
COc1cc(/C=C/C(=O)C(=Cc2ccc3c(c2)C(=O)N(C2CCC(=O)NC2=O)C3=O)C(=O)/C=C/c2ccc(O)c(OC)c2)ccc1O (stereo not given),IC50,[3],6.44 µM
same,IC50,[4],96 µM
same,IC50,[5],4.55 µM
COc1cc(/C=C/C(=O)/C=C/c2ccc3c(c2)C(=O)N(C2CCC(=O)NC2=O)C3=O)ccc1O (stereo not given),IC50,[3],7.59 µM
same,IC50,[4],2.33 µM
same,IC50,[5],5.62 µM
O=C(/C=C(O)/C=C/c1ccc(O)c(O)c1)c1cc(Cl)ccc1O,IC50,[2],4.9 µM
O=C1/C(=C/c2cc(/N=C/c3ccc(O)c(O)c3O)ccc2F)CNC/C1=C\c1cc(/N=C/c2ccc(O)c(O)c2O)ccc1F,IC50,[6],< 2 µM
same,IC50,[7],< 2 µM
same,IC50,[8],< 2 µM
same,IC50,[9],< 2 µM
same,IC50,[10],< 2 µM
same,IC50,[11],< 2 µM
same,IC50,[12],< 2 µM
CCOC(OCC)c1ccc(/C=C2\CN(C)C/C(=C\c3ccc(C(OCC)OCC)cc3)C2=NO)cc1,IC50,[13],0.03 µM
CN1C/C(=C\c2cn(-c3ccccc3)nc2-c2ccccc2)C(=O)/C(=C/c2cn(-c3ccccc3)nc2-c2ccccc2)C1,IC50,[14]; mda-mb-231,20.5 ppm
O=C1/C(=C/c2cn(-c3ccccc3)nc2-c2ccc([N+](=O)[O-])cc2)CCCC/C1=C\c1cn(-c2ccccc2)nc1-c1ccc([N+](=O)[O-])cc1,IC50,[14]; mda-mb-231,32.4 ppm
COc1ccc(-c2nn(-c3ccccc3)cc2/C=C2\CCCC/C(=C\c3cn(-c4ccccc4)nc3-c3ccc(OC)cc3)C2=O)cc1,IC50,[14]; mda-mb-231,75.8 ppm
O=C(/C=C/c1c[nH]c2ccccc12)CC(=O)/C=C/c1c[nH]c2ccccc12,IC50,[15],15 to 17 µM
C=CC(=O)NC(c1ccccc1)C(C(=O)/C=C/c1cccc(O)c1)C(=O)/C=C/c1cccc(O)c1 (stereo not given),IC50,[16],2.8 µg/mL
COc1ccc(-c2nn(-c3ccccc3)cc2/C=C2\CN(C)C/C(=C\c3cn(-c4ccccc4)nc3-c3ccc(OC)cc3)C2=O)cc1,IC50,[14]; mda-mb-231,39.9 ppm
same,IC50,[17],6400 µM
O=C1NC(/C=C/c2ccccc2)=NC/1=C\C=C\c1ccccc1,IC50,[18],8.9 µM
COc1cc(CCc2cc(CCc3ccc(OC(C)=O)c(OC)c3)on2)ccc1OC(C)=O,IC50,[19],3 µM
same,IC50,[20],2.8 µM
O=C(/C=C/c1cn(-c2ccccc2)nc1-c1ccc([N+](=O)[O-])cc1)/C=C/c1cn(-c2ccccc2)nc1-c1ccc([N+](=O)[O-])cc1,IC50,[14]; mda-mb-231,50.4 ppm
CN1C/C(=C\c2ccc(N(C)C)cc2[N+](=O)[O-])C(=NO)/C(=C/c2ccc(N(C)C)cc2[N+](=O)[O-])C1,IC50,[21],0.02 µM
same,IC50,[22],0.02 µM
same,IC50,[23],0.02 µM
same,IC50,[13],0.02 µM
CCN1N=C(C(=NNc2ccccc2)C2=NN(CC)C(c3ccc(O)c(OC)c3)C2)CC1c1ccc(O)c(OC)c1 (stereo not given),MIC,[24],3.12 µg/mL
O=C1/C(=C/c2cn(-c3ccccc3)nc2-c2ccccc2)CN(Cc2ccccc2)C/C1=C\c1cn(-c2ccccc2)nc1-c1ccccc1,IC50,[14]; mda-mb-231,45.1 ppm
O=C1/C(=C/c2cn(-c3ccccc3)nc2-c2ccccc2)CCCC/C1=C\c1cn(-c2ccccc2)nc1-c1ccccc1,IC50,"[14]; Homo sapiens, MDA-MB-231",11.6 µM
O=C1/C(=C/c2cn(-c3ccccc3)nc2-c2ccccc2)CNC/C1=C\c1cn(-c2ccccc2)nc1-c1ccccc1,IC50,[17],10500 µM
COc1cc(/C=C/C=C2N=C(/C=C/c3ccccc3)NC\2=O)ccc1O,IC50,[18],7.6 µM
same,Activity,[25],2.5 - 45.7%
CCCNC(=O)/C(=C/C=C/c1ccccc1)NC(=O)/C=C/c1ccccc1,IC50,[26],0.0038 µM
same,Activity,[25],16.2%
